The results in this text go back to patent US11198869B2, “Angelman syndrome antisense treatment” (The Texas A&M University System, priority 2017, dated 2021).

The test relates to UBE3A. Nature of the test: UBE3A steady state RNA (qRT-PCR) in GABAergic iPSC-derived neurons. It counts as cell-based, human. Conditions: for Difference, UBE3A RNA level: ASOs 10 μM; for effect on UBE3A RNA levels (in words): treated 29 DIV, RNA 35 DIV, 10-point dose curve; for increase of UBE3A RNA levels: 10 μM. As to the method:
Human-specific ASOs were then designed to target this region, which included four ASOs targeting non-polymorphic regions in human and regions conserved (100%) with macaque (Rhesus and Cynomolgus) (Table 7 and FIG. 3A). Human induced pluripotent stem cell (iPSC) neural precursor cells were differentiated into GABAergic neurons for 14 DIV and then treated with a control ASO [ASO-C (10 μM, n=3)], Topotecan [Topo (1 μM, n=2)], and six ASOs targeting UBE3A-AS [ASO-1, ASO-2, ASO-3, ASO-4, ASO-5, and ASO-6 (10 μM, n=3)]. Additionally, an ASO targeting an intronic region downstream of SNORD109B was included (ASO-7). Six days post-treatment (20 DIV), RNA was isolated from the neurons and the steady state RNA levels of UBE3A-AS and UBE3A were estimated relative to the control treatment (FIG. 3B).
The effects of ASO-4 and Topotecan were then examined on the SNORD116, IPW, SNORD115, and SNORD109A RNAs, which are located upstream of the ASO-4 target region (see FIG. 1A).
The potency of ASO-4 was further examined in iPSC-derived neurons at a later time point in differentiation. GABAergic iPSC-derived neurons were treated at 59 DIV with a control ASO [ASO-C, 10 μM (n=3)] and ASO-4 [1 uM, 5 μM, and 10 μM (n=3)], and the steady state RNA levels of UBE3A-AS and UBE3A were measured as described above (FIG. 4G). Unlike neurons treated with ASO-4 at an earlier time point, the RNA levels of UBE3A and UBE3A-AS were highly inversely correlated (FIGS. 4H and 4I). For example, the effect of ASO-4 (10 μM) on UBE3A-AS RNA levels was similar between neurons treated at 14 and 59 DIV [20 DIV: UBE3A-AS: ↓87% (95% confidence intervals (CI): 80 to 95%); 65 DIV: ↓81% (95% CI: 74 to 88%)], whereas the effect of ASO-4 on UBE3A RNA levels was substantially larger in neurons treated at 59 DIV [20 DIV: ↑30% (95% CI: 16 to 44%); 65 DIV: ↑86% (95% CI: 59% to 113%)].
The potency of ASO-4 and ASO-6.1 was further examined in iPSC-derived neurons at a later time point in differentiation. GABAergic iPSC-derived neurons were treated at 29 DIV with a 10-point ½ log dose response curve of ASO-4 and ASO-6.1 [1 nM, 3 nM, 10 nM, 30 nM, 100 nM, 300 nM, 1 μM, 3 μM, 10 μM, and 30 μM (n=3)]. At 35 DIV, the IC50 and Emax of each ASO was estimated as described above (FIG. 5C-D and Table 14). The dose response curves of ASO-4 and ASO-6.1 were not similar (Parallelism test: F(3,172)=22.7, p<0.0001).
GABAergic and glutamatergic induced pluripotent stem cell (iPSC) derived neural precursor cells (NRC-100-010-001 and GNC-301-030-001, Cellular Dynamics International, Madison Wis.) were differentiated into neurons according to the manufactures protocol. Briefly, neural precursor cells were thawed and resuspended in chemically defined medium and added to sterile-culture plates coated with poly-D-lysine and laminin. The medium was replaced 24 hr after plating and then one-half of the medium was replaced every 3-5 days afterwards.
For cultured iPSC-derived neurons, RNA isolation and cDNA synthesis were performed using the Cell-to-CT kit (Thermo Fisher Scientific) in a lysate volume of 55 μl.
The steady state RNA levels of target transcripts were measured using TaqMan quantitative reverse-transcription PCR (qRT-PCR) assays. Total reaction volume was 10 uL, including 2 μl of cDNA, 1× Gene Expression Master mix (4369016, Thermo Fisher Scientific, Waltham, Mass.), and 1× TaqMan primer assay (Thermo Fisher Scientific). Cycling conditions were 2 minutes at 50° C., 10 minutes at 95° C., and 40 cycles of 15 seconds at 95° C. and 1 minute at 60° C., with readings taken at the 60° C. step of every cycle. Reactions were run on a BIO-RAD T1000 CFX96 thermocycler (Bio-Rad Laboratories, Hercules Calif.), with internal control (PPIA, Hs99999904_m1, Thermo Fisher Scientific) and target [UBE3A-AS, Hs01372957_m1; SNORD116-11, Hs04275268_gH; SNORD115, Hs04275288_gH; IPW, Hs03455409_s1; SNORD109A/B, AP47WVR (Thermo Fisher Scientific); UBE3A: forward […] (SEQ ID NO:500); reverse: […]

The mark [1] stands for this setting: Topo 1 μM, 14 DIV to 20 DIV, labelled treatment minus ASO-3.
[2] abbreviates: Topo 1 μM, 14 DIV to 20 DIV, labelled treatment minus ASO-5.
The mark [3] stands for this setting: Topo 1 μM, 14 DIV to 20 DIV, labelled treatment minus ASO-6.
[4] abbreviates: Topo 1 μM, 14 DIV to 20 DIV, labelled treatment minus ASO-R.
Where [5] appears, read: Topo 1 μM, treated 14 DIV, RNA 20 DIV, normalized to ASO-C, labelled treatment minus ASO-C.
Where [6] appears, read: 14 DIV to 20 DIV, labelled treatment minus ASO-1.
The mark [7] stands for this setting: 14 DIV to 20 DIV, labelled treatment minus Topo (1 μM).

Turning to `CC[C@@]1(O)C(=O)OCc2c1cc1n(c2=O)Cc2cc3c(CN(C)C)c(O)ccc3nc2-1` [Topotecan, reference compound], the “Difference, UBE3A RNA level” value stood at 0.05 under setting [1]; 0.02 under setting [2]; 0.02 under setting [3]; 0.18 under setting [4]; 0.18 under setting [5].

On to “C^O*U^O*G^O*G^O*t*g*t*c*a*a*c*a*a*g*C^O*C^O*A^O*A^O [ASO-6.1]”, for which the “effect on UBE3A RNA levels (in words)” value is on record as “increasing RNA levels in dose dependent manner”.

As to “G^O*U^O*A^O*C^O*U^O*c*t*t*c*c*t*c*a*g*t*C^O*A^O*U^O*C^O*C^O [ASO-2]”, the “Difference, UBE3A RNA level” value worked out at 0.08 under setting [1]; 0.05 under setting [2]; 0.05 under setting [3]; 0.21 under setting [4]; 0.21 under setting [5]; 0.03 under setting [6]. Moreover, the “Difference, UBE3A RNA level” value under setting [7] is 0.03.

With “U^O*A^O*G^O*A^O*A^O*t*g*g*c*a*c*a*t*c*t*C^O*U^O*U^O*G^O*G^O [ASO-4]”, the “effect on UBE3A RNA levels (in words)” value is “increasing RNA levels in dose dependent manner”. The “increase of UBE3A RNA levels” value (treated 14 DIV, RNA 20 DIV) stood at 30%. The “increase of UBE3A RNA levels” value (treated 59 DIV, RNA 65 DIV) is 86%. Moreover, under setting [1], the “Difference, UBE3A RNA level” value was 0.17. Under setting [2], the “Difference, UBE3A RNA level” value was found to be 0.13. Also, under setting [3], the “Difference, UBE3A RNA level” value is recorded as 0.13. Moreover, the “Difference, UBE3A RNA level” value under setting [4] came out at 0.29. The “Difference, UBE3A RNA level” value under setting [5] is listed as 0.30. In addition, the “Difference, UBE3A RNA level” value under setting [6] worked out at 0.11. The “Difference, UBE3A RNA level” value (14 DIV to 20 DIV, labelled treatment minus ASO-2) turned out to be 0.08. Further, the “Difference, UBE3A RNA level” value under setting [7] was 0.11.
